The data set in a line: Stability of the product during purification (sensitivity to methanol). It counts as physicochemical. The note with it: particularly at a pH below 6.

Turning to `CC=C(C)C=C(C)C1C(C)=CC2(C)CC(C)CCC2C1C(=O)C1=CC(O)(Cc2ccccc2)C(=O)N1` (stereo not shown) [Structural Formula I], the “instability of the product / sensitivity to methanol” value is “sensitivity to methanol particularly at a pH below 6”.

Source of the values: US5352800A, “Process for the production of a novel endothelin antagonist” (Merck & Co., Inc., priority 1993, dated 1994).
